How the values were obtained:
F1F0-ATPase = biological target: T1, F1F0-ATPase (Bos taurus, UniProt P13621); test: Inhibition of F1F0-ATPase activity in synthesizing ATP; assay type: biochemical; details: inhibition of ATP synthesis; read-out: ATP Syn IC50
T1 construct: from tissue
Description: (§1) The compounds listed in Table 4 were tested for activity against F1F0-ATPase by measuring the ability of the compounds to inhibit ATP synthesis. In addition, the compounds were assessed for cytotoxicity in Ramos cells Inhibition of F1F0-ATPase activity in synthesizing ATP and cytotoxicity in Ramos cells were measured according to the procedures described in K. M. Johnson et al. Chemistry & Biology 2005, 12, 485-496.

Ramos cells = test: Cytotoxicity in Ramos cells; assay type: cell-based; details: Homo sapiens, read-out: Ramos Cell EC50
Description: as §1

IC50 (F1F0-ATPase) [µM] | SMILES | EC50 (Ramos cells) [µM]
< 10 | O=C(/N=C(/NCc1ccc(Cl)cc1)Nc1cccc(O)n1)c1ccc(Cl)cc1 [Compound A-76] | < 10
< 10 | CCC(C)(C)N/C(=N/C(=O)c1ccc(F)c(F)c1)Nc1cccc(O)n1 [Compound A-96] | < 10
< 10 | N#Cc1ccccc1S(=O)(=O)Nc1cccc(NC(=NC(=O)c2ccc(Cl)cc2)Nc2cc(F)cc(Cl)c2)n1 [Compound A-142] | < 10
< 10 | O=C(/N=C(\NCC(F)(F)F)Nc1cccc(O)n1)c1ccc(Cl)cc1 [Compound A-56] | < 10
< 10 | O=C(/N=C(/NCc1ccc(F)c(F)c1)Nc1cccc(O)n1)c1ccc(C(F)(F)F)cc1 [Compound A-36] | < 10
< 10 | O=C(/N=C(/NCc1ccccc1Cl)Nc1cccc(O)n1)c1ccc(F)c(F)c1 [Compound A-71] | < 10
< 10 | CC1(N/C(=N/C(=O)c2ccc(Cl)cc2)Nc2cccc(O)n2)CCCC1 [Compound A-62] | < 10
> 10 | O=C(/N=C(\Nc1cccc(O)n1)NC1CCCOC1)c1ccc(Cl)cc1 (stereo not shown) [Compound A-105] | > 10
< 10 | O=C(N=C(Nc1cccc(O)n1)NC1CCC(C(F)(F)F)CC1)c1ccc(C(F)(F)F)cc1 (stereo not shown) [Compound A-63] | < 10
< 10 | CC(C)(C)c1ccccc1N/C(=N/C(=O)c1ccc(C(F)(F)F)cc1)Nc1cccc(O)n1 [Compound A-14] | < 10
< 10 | O=C(/N=C(/NCc1ccc(Cl)cc1F)Nc1cccc(NS(=O)(=O)CC(F)(F)F)n1)c1ccc(Cl)cc1 [Compound A-136] | < 10
< 10 | O=C(/N=C(\Nc1cccc(O)n1)Nc1ccc(F)cc1C1CC1)c1ccc(C(F)(F)F)cc1 [Compound A-12] | < 10
< 10 | CCS(=O)(=O)Nc1cccc(N/C(=N\C(=O)c2ccc(Cl)cc2)Nc2cc(F)cc(Cl)c2)n1 [Compound A-130] | < 10
< 10 | O=C(N=C(Nc1cc(F)cc(Cl)c1)Nc1cccc(NS(=O)(=O)c2cccnc2)n1)c1ccc(Cl)cc1 [Compound A-147] | < 10
< 10 | O=C(/N=C(/Nc1cc(F)cc(Cl)c1)Nc1cccc(O)n1)c1cccc(C(F)(F)F)c1 [Compound A-22] | < 10
< 10 | O=C(/N=C(/Nc1cccc(O)n1)NC(C1CC1)C1CC1)c1ccc(C(F)(F)F)cc1 [Compound A-59] | < 10
< 10 | CCS(=O)(=O)Nc1cccc(N/C(=N\C(=O)c2ccc(Cl)cc2)NCC(C)(C)C)n1 [Compound A-131] | < 10
< 10 | O=C(/N=C(\Nc1cccc(O)n1)NC1CCCC1)c1ccc(C(F)(F)F)cc1 [Compound A-89] | < 10
< 10 | O=C(N=C(Nc1cccc(O)n1)NC1CCC(C(F)(F)F)CC1)c1ccc(Cl)cc1 (stereo not shown) [Compound A-64] | < 10
< 10 | N#CCS(=O)(=O)Nc1cccc(N/C(=N\C(=O)c2ccc(F)c(F)c2)NCc2ccccc2C(F)(F)F)n1 [Compound A-151] | < 10
< 10 | O=C(/N=C(/Nc1cccc(C(F)(F)F)c1)Nc1cccc(O)n1)c1cccc(C(F)(F)F)c1 [Compound A-17] | < 10

IC50 (F1F0-ATPase) [µM] | SMILES | EC50 (Ramos cells) [µM]
< 10 | CC1CCC(N/C(=N/C(=O)c2ccc(C(F)(F)F)cc2)Nc2cccc(O)n2)CC1 (stereo not shown) [Compound A-29] | < 10
< 10 | O=C(/N=C(\Nc1cccc(C(F)(F)F)c1)Nc1cccc(O)n1)c1ccc(C(F)(F)F)cc1 [Compound A-1] | < 10
> 10 | O=C(/N=C(\Nc1cccc(O)n1)NC1CCOCC1)c1ccc(Cl)cc1 [Compound A-104] | > 10
< 10 | O=C(/N=C(/NCC(F)(F)F)Nc1cccc(O)n1)c1ccc(C(F)(F)F)cc1 [Compound A-52] | < 10
< 10 | O=C(/N=C(\Nc1cccc(O)n1)NC1CCC1)c1ccc(F)c(F)c1 [Compound A-108] | > 10
< 10 | O=C(/N=C(/Nc1cccc(Cl)c1)Nc1cccc(O)n1)c1ccc(F)c(F)c1 [Compound A-24] | < 10
< 10 | O=C(/N=C(/Nc1cc(F)cc(Cl)c1)Nc1cccc(O)n1)c1ccc(F)c(F)c1 [Compound A-4] | < 10
< 10 | O=C(/N=C(/NCC1CCCCC1)Nc1cccc(O)n1)c1ccc(C(F)(F)F)cc1 [Compound A-42] | < 10
< 10 | CC(C)(C)N/C(=N/C(=O)c1ccc(Cl)cc1)Nc1cccc(NS(=O)(=O)CC(F)(F)F)n1 [Compound A-124] | < 10
< 10 | CCS(=O)(=O)Nc1cccc(N/C(=N\C(=O)c2ccc(Cl)cc2)NCc2ccc(Cl)cc2F)n1 [Compound A-132] | < 10
< 10 | CC(C)(C)N/C(=N/C(=O)c1ccc(F)c(F)c1)Nc1cccc(NS(=O)(=O)CC(F)(F)F)n1 [Compound A-128] | < 10
< 10 | O=C(/N=C(/NCc1ccc(Cl)c(F)c1)Nc1cccc(O)n1)c1ccc(Cl)cc1 [Compound A-83] | < 10
> 10 | O=C(/N=C(\Nc1cccc(O)n1)NC1CCCOC1)c1ccc(F)c(F)c1 (stereo not shown) [Compound A-99] | > 10
< 10 | Cc1noc(C)c1S(=O)(=O)Nc1cccc(N/C(=N\C(=O)c2ccc(Cl)cc2)NCc2ccc(Cl)cc2F)n1 [Compound A-146] | < 10
< 10 | O=C(/N=C(\Nc1cccc(O)n1)NC1CCC(F)(F)CC1)c1ccc(F)c(F)c1 [Compound A-31] | < 10
< 10 | O=C(/N=C(/NCc1ccc(F)c(Cl)c1)Nc1cccc(O)n1)c1ccc(F)c(F)c1 [Compound A-27] | < 10
< 10 | O=C(/N=C(/NCc1ccc(C(F)(F)F)cc1)Nc1cccc(O)n1)c1ccc(Cl)cc1 [Compound A-79] | < 10
< 10 | C[C@@H](N/C(=N/C(=O)c1ccc(F)c(F)c1)Nc1cccc(O)n1)C1CCCCC1 [Compound A-97] | < 10
< 10 | Cc1cc(CN/C(=N/C(=O)c2ccc(F)c(F)c2)Nc2cccc(O)n2)no1 [Compound A-54] | > 10
< 10 | CCOC(=O)Nc1cccc(N/C(=N\C(=O)c2ccc(F)c(F)c2)NCc2ccc(Cl)cc2F)n1 [Compound A-112] | > 10
< 10 | CC1(N/C(=N/C(=O)c2ccc(C(F)(F)F)cc2)Nc2cccc(O)n2)CCCC1 [Compound A-61] | < 10

IC50 (F1F0-ATPase) [µM] | SMILES | EC50 (Ramos cells) [µM]
< 10 | CC(=O)Nc1cccc(N/C(=N\C(=O)c2ccc(Cl)cc2)NCC(C)(C)C)n1 [Compound A-143] | < 10
< 10 | CC(C)(N/C(=N/C(=O)c1ccc(C(F)(F)F)cc1)Nc1cccc(O)n1)C(F)(F)F [Compound A-51] | < 10
< 10 | O=C(/N=C(\Nc1cccc(O)n1)Nc1ccccc1C1CC1)c1ccc(C(F)(F)F)cc1 [Compound A-6] | < 10
< 10 | O=C(/N=C(/NCc1cccc(C(F)(F)F)c1)Nc1cccc(O)n1)c1ccc(F)c(F)c1 [Compound A-74] | < 10
< 10 | N#Cc1ccccc1S(=O)(=O)Nc1cccc(N/C(=N\C(=O)c2ccc(Cl)cc2)NCc2ccc(Cl)cc2F)n1 [Compound A-138] | < 10
< 10 | CC(C)(N/C(=N\C(=O)c1ccc(Cl)cc1)Nc1cccc(O)n1)C(F)(F)F [Compound A-57] | < 10
< 10 | O=C(/N=C(/NCc1ccc(C(F)(F)F)cc1)Nc1cccc(O)n1)c1ccc(C(F)(F)F)cc1 [Compound A-34] | < 10
< 10 | O=C(/N=C(/NCc1cccc(Cl)c1)Nc1cccc(O)n1)c1ccc(Cl)cc1 [Compound A-88] | < 10
< 10 | O=C(/N=C(/NCc1cccc(C(F)(F)F)c1)Nc1cccc(O)n1)c1ccc(C(F)(F)F)cc1 [Compound A-33] | < 10
< 10 | O=C(/N=C(/NCc1ccc(C(F)(F)F)cc1)Nc1cccc(O)n1)c1ccc(F)c(F)c1 [Compound A-35] | < 10
< 10 | O=C(/N=C(/Nc1cccc(Cl)c1)Nc1cccc(O)n1)c1cccc(C(F)(F)F)c1 [Compound A-20] | < 10
< 10 | CCS(=O)(=O)Nc1cccc(N/C(=N\C(=O)c2ccc(F)c(F)c2)NCc2ccccc2C(F)(F)F)n1 [Compound A-150] | > 10
< 10 | O=C(N=C(Nc1cc(F)cc(Cl)c1)Nc1cccc(NS(=O)(=O)CC(F)(F)F)n1)c1ccc(Cl)cc1 [Compound A-135] | < 10
> 10 | COc1cccc(N/C(=N\C(=O)c2ccc(C(F)(F)F)cc2)NCc2ccc(Cl)c(F)c2)n1 [Compound A-66] | > 10
> 10 | Nc1cccc(N/C(=N\C(=O)c2cccc(C(F)(F)F)c2)Nc2cccc(C(F)(F)F)c2)n1 [Compound A-118] | > 10
< 10 | O=C(/N=C(/NCC1CC1)Nc1cccc(O)n1)c1ccc(C(F)(F)F)cc1 [Compound A-40] | < 10
< 10 | O=C(/N=C(\Nc1cccc(O)n1)NC1CCCCCC1)c1ccc(C(F)(F)F)cc1 [Compound A-39] | < 10
< 10 | O=C(/N=C(/Nc1cccc(C(F)(F)F)c1)Nc1cccc(O)n1)c1ccc(Cl)c(F)c1 [Compound A-18] | < 10
< 10 | O=C(/N=C(/Nc1cccc(C(F)(F)F)c1)Nc1cccc(O)n1)c1cccc(Cl)c1 [Compound A-16] | < 10
< 10 | O=C(/N=C(/NCc1ccc(Cl)cc1F)Nc1cccc(O)n1)c1ccc(Cl)cc1 [Compound A-84] | > 10

— patent US9370507B2, “Pyridonyl guanidine F1F0-ATPase inhibitors and therapeutic uses thereof” (Lycera Corporation, priority 2010, dated 2016)
